# Measurements published in ChEMBL document CHEMBL1132316 (J Med Chem, 1999).
# System: Rattus norvegicus
# Assay: Tested for the protection against glutamic acid-evoked convulsions in rats by intraperitoneal administration
# Assay type: functional
# Conditions: ip
row,Structure (SMILES),ED50 [mg/kg]
1,N=c1sc2cc(OC(F)(F)F)ccc2n1CCN1CCN(c2ccccc2)CC1,3.5
2,Cn1c(=N)sc2cc(OC(F)(F)F)ccc21,5
3,CCSCCn1/c(=N/C)sc2cc(OC(F)(F)F)ccc21,3.7
4,CN(CCc1ccccc1)CCn1c(=N)sc2cc(OC(F)(F)F)ccc21,5
5,N=c1sc2cc(OC(F)(F)F)ccc2n1CCO,8
6,N=c1sc2cc(OC(F)(F)F)ccc2n1CCc1ccccc1,> 10
7,Nc1nc2ccc([N+](=O)[O-])cc2s1,> 10
8,C[S+]([O-])CCCn1c(=N)sc2cc(OC(F)(F)F)ccc21 (configuration not stated),2.3
9,N=c1sc2cc(OC(F)(F)F)ccc2n1Cc1ccccc1,> 10
10,N=c1sc2cc(OC(F)(F)F)ccc2n1CCCN1CCN(c2ccccc2)CC1,10
11,Nc1nc2cccc(OC(F)(F)F)c2s1,> 10
12,N#CCn1c(=N)sc2cc(OC(F)(F)F)ccc21,3.5
13,CCc1ccc2nc(N)sc2c1,7
14,Nc1nc2ccc(OC(F)(F)C(F)F)cc2s1,8.5
15,CCCSCCn1c(=N)sc2cc(OC(F)(F)F)ccc21,2.4
16,N=c1sc2cc(OC(F)(F)F)ccc2n1CC[S+]([O-])c1ccccc1 (configuration not stated),4.2
17,Nc1nc2ccc(OCC(F)(F)C(F)(F)F)cc2s1,7.5
18,CCCCc1ccc2c(c1)sc(=N)n2CC[S+]([O-])CC (configuration not stated),> 10
19,CCC(C)(C)c1ccc2nc(N)sc2c1,> 10
20,CN(CCn1c(=N)sc2cc(OC(F)(F)F)ccc21)Cc1ccccc1,7
21,Nc1ccc2nc(N)sc2c1,> 10
22,CS(=O)(=O)CCn1c(=N)sc2cc(OC(F)(F)F)ccc21,1.8
23,CN(C)S(=O)(=O)CCn1c(=N)sc2cc(OC(F)(F)F)ccc21,> 10

row,Structure (SMILES),ED50 [mg/kg]
1,N=c1sc2cc(OC(F)(F)F)ccc2n1CCSc1ccccc1,4.5
2,C[S+]([O-])Cn1c(=N)sc2cc(OC(F)(F)F)ccc21 (configuration not stated),2.3
3,N#Cc1ccc2nc(N)sc2c1,> 10
4,N=c1sc2cc(OC(F)(F)F)ccc2n1CCS,2
5,C[S+]([O-])CCn1c(=N)sc2cc(OC(F)(F)F)ccc21 (configuration not stated),1.1
6,CC(C)(C)Oc1ccc2nc(N)sc2c1,> 10
7,CCSCCn1/c(=N/O)sc2cc(OC(F)(F)F)ccc21,> 10
8,CS(=O)(=O)c1ccc2nc(N)sc2c1,> 10
9,CS(=O)(=O)CCCn1c(=N)sc2cc(OC(F)(F)F)ccc21,5
10,N=c1sc2cc(OC(F)(F)F)ccc2n1CCS(N)(=O)=O,6
11,Nc1nc2c(OC(F)(F)F)cccc2s1,> 10
12,Nc1nc2ccc(C(F)(F)F)cc2s1,2.5
13,N=c1sc2cc(OC(F)(F)F)ccc2n1CC(=O)O,> 10
14,COC(=O)Cn1c(=N)sc2cc(OC(F)(F)F)ccc21,> 10
15,Nc1nc2cc(OC(F)(F)F)ccc2s1,> 10
16,CSCCn1c(=N)sc2cc(OC(F)(F)F)ccc21,1
17,N=c1sc2cc(OC(F)(F)F)ccc2n1CC(N)=O,7
18,CN(C)CCn1c(=N)sc2cc(OC(F)(F)F)ccc21,2.3
19,CCCc1ccc2nc(N)sc2c1,6
20,CSCCn1/c(=N/C(C)=O)sc2cc(OC(F)(F)F)ccc21,> 10
21,CCCCCc1ccc2nc(N)sc2c1,7.5
22,CCCCc1ccc2nc(N)sc2c1,4
23,CC[S+]([O-])CCn1c(=N)sc2cc(OC(F)(F)F)ccc21 (configuration not stated),1.2

row,Structure (SMILES),ED50 [mg/kg]
1,CSCCCn1c(=N)sc2cc(OC(F)(F)F)ccc21,4.2
2,CNCCn1c(=N)sc2cc(OC(F)(F)F)ccc21,> 10
3,CC(C)(C)Cc1ccc2nc(N)sc2c1,> 10
4,Nc1nc2ccc(C3CCCCC3)cc2s1,> 10
5,N=c1sc2cc(OC(F)(F)F)ccc2n1CCN1CCCCC1,2
6,N=c1sc2cc(OC(F)(F)F)ccc2n1CCN1CC=C(c2ccccc2)CC1,2.2
7,CCSCCn1c(=N)sc2cc(OC(F)(F)F)ccc21,2.2
8,CCCCn1c(=N)sc2cc(OC(F)(F)F)ccc21,10
9,Nc1nc2ccc(SC(F)(F)F)cc2s1,8
10,Nc1nc2ccc(OC(F)(F)C(F)(F)F)cc2s1,2.5
11,Nc1nc2ccc(I)cc2s1,> 10
12,CCS(=O)(=O)CCn1c(=N)sc2cc(OC(F)(F)C(F)(F)F)ccc21,2.6
13,CCCn1c(=N)sc2cc(OC(F)(F)F)ccc21,4.5
14,CCn1c(=N)sc2cc(OC(F)(F)F)ccc21,5
15,CC[S+]([O-])CCn1c(=N)sc2cc(C(F)(F)F)ccc21 (configuration not stated),1.7
16,CCOC(=O)c1ccc2nc(N)sc2c1,> 10
17,Nc1nc2ccc(CC(F)(F)F)cc2s1,8
18,C=CCn1c(=N)sc2cc(OC(F)(F)F)ccc21,7
19,Nc1nc2ccc(C(F)(F)C(F)(F)F)cc2s1,2.5
20,C[Si](C)(C)c1ccc2nc(N)sc2c1,5
21,CC[S+]([O-])CCn1c(=N)sc2cc(C(C)(C)C)ccc21 (configuration not stated),> 10
22,CCSCCn1/c(=N/OC)sc2cc(OC(F)(F)F)ccc21,> 10
23,N=c1sc2cc(OC(F)(F)F)ccc2n1CCN1CCC(c2ccccc2)CC1,3

row,Structure (SMILES),ED50 [mg/kg]
1,CN(C)CCn1c(=N)sc2cc(C(C)(C)C)ccc21,> 10
2,CNS(=O)(=O)CCn1c(=N)sc2cc(OC(F)(F)F)ccc21,4
3,Nc1nc2ccc(-c3ccccc3)cc2s1,> 10
4,CSCCn1c(=O)sc2cc(OC(F)(F)F)ccc21,> 10
5,CC(C)c1ccc2nc(N)sc2c1,> 10
6,CSCn1c(=N)sc2cc(OC(F)(F)F)ccc21,3
7,Nc1nc2ccc(OCC(F)(F)F)cc2s1,6.5
8,CCCCCCc1ccc2nc(N)sc2c1,7
9,Nc1nc2ccc(OC(F)F)cc2s1,7.5
10,C#CCn1c(=N)sc2cc(OC(F)(F)F)ccc21,4
11,Nc1nc2ccc(C(=O)C(F)(F)F)cc2s1,> 10
12,CCCCCCCc1ccc2nc(N)sc2c1,> 10
13,CCN(CC)C(=O)Cn1c(=N)sc2cc(OC(F)(F)F)ccc21,9
14,N=c1sc2cc(OC(F)(F)F)ccc2n1CCS(=O)(=O)O,> 10
15,COc1ccc2nc(N)sc2c1,> 10
16,CN(C)CCn1c(=N)sc2ccccc21,> 10
17,CC(C)(C)c1ccc2nc(N)sc2c1,4
18,Nc1nc2ccc(Br)cc2s1,> 10
19,CC/N=c1\sc2cc(OC(F)(F)F)ccc2n1CCSC,8.5
20,CN(C)CCCn1c(=N)sc2cc(OC(F)(F)F)ccc21,9
21,CCS(=O)(=O)CCn1c(=N)sc2cc(C(F)(F)C(F)(F)F)ccc21,2.1
22,C[C@]12N[C@H](Cc3ccccc31)c1ccccc12 (racemic) [DIZOCILPINE],2.2
23,Nc1nc2ccc(OC(F)(F)F)cc2s1 [RILUZOLE],3.2

# System: Mus musculus
# Assay: Protective effect against mortality induced by hypobaric hypoxia in mice by intraperitoneal (i.p.) administration.
# Assay type: functional
# Conditions: ip
row,Structure (SMILES),ED50 [mg/kg]
1,N=c1sc2cc(OC(F)(F)F)ccc2n1CCN1CCN(c2ccccc2)CC1,5.5
2,N=c1sc2cc(OC(F)(F)F)ccc2n1CCCN1CCN(c2ccccc2)CC1,> 10
3,C[S+]([O-])CCn1c(=N)sc2cc(OC(F)(F)F)ccc21 (configuration not stated),5.5
4,CSCCn1c(=N)sc2cc(OC(F)(F)F)ccc21,14
5,CN(C)CCn1c(=N)sc2cc(OC(F)(F)F)ccc21,4
6,N=c1sc2cc(OC(F)(F)F)ccc2n1CCN1CCCCC1,< 5
7,Nc1nc2ccc(OC(F)(F)F)cc2s1 [RILUZOLE],4

# System: Mus musculus
# Assay: Protective effect against mortality induced by hypobaric hypoxia in mice by intraperitoneal (i.p.) administration; Range 2.5-10
# Assay type: functional
# Conditions: ip
row,Structure (SMILES),ED50 [mg/kg]
1,CS(=O)(=O)CCn1c(=N)sc2cc(OC(F)(F)F)ccc21,2.5
2,N=c1sc2cc(OC(F)(F)F)ccc2n1CCN1CC=C(c2ccccc2)CC1,2.5
3,N=c1sc2cc(OC(F)(F)F)ccc2n1CCN1CCC(c2ccccc2)CC1,2.5
